Laboratory results published in US6617340B1, “N-(substituted glycyl)-pyrrolidines, pharmaceutical compositions containing them and their use in inhibiting dipeptidyl peptidase-IV” (Novartis AG, priority 1999, dated 2003).

Legend:
[1] = molecular target: T1, DPP-IV activity from human colonic carcinoma cell extracts (Caco-2) (Homo sapiens, UniProt P27487); test: Caco-2 DPP-IV Assay; assay type: biochemical; details: Caco-2 cell extract, substrate H-Alanine-Proline-pNA
T1 construct: Cell extract is prepared from cells solubilized in 10 mM Tris-HCl, 0.15 M NaCl, 0.04 t.i.u. aprotinin, 0.5% nonidet-P40; host or cells: Caco-2 (differentiated), NP-40 solubilized extract
Procedure: The human colonic carcinoma cell line Caco-2 was obtained from the American Type Culture Collection (ATCC HTB 37). Differentiation of the cells to induce DPP-IV expression was accomplished as described by Reisher, et al. in an article entitled “Increased expression of . . . intestinal cell line Caco-2” in Proc. Natl. Acad. Sci., Vol. 90, pgs. […] Cell extract is prepared from cells solubilized in 10 mM Tris-HCl, 0.15 M NaCl, 0.04 t.i.u. aprotinin, 0.5% nonidet-P40, pH 8.0, which is centrifuged at 35,000 g for 30 min. at 4° C. to remove cell debris. The assay is conducted by adding 20 μg solubilized Caco-2 protein, diluted to a final volume of 125 μl in assay buffer (25 mM Tris-HCl pH 7.4, 140 mM NaCl, 10 mM KCl, 1% bovine serum albumin) to microtiter plate wells. The reaction is initiated by adding 25 μl of 1 mM substrate (H-Alanine-Proline-pNA; pNA is p-nitroaniline). The reaction is run at room temperature for 10 minutes after which time a 19 μl volume of 25% glacial acetic acid is added to stop the reaction. […] A standard curve of free p-nitroaniline is generated using 0-500 μM solutions of free pNA in assay buffer. The curve generated is linear and is used for interpolation of substrate consumption (catalytic activity in nmoles substrate cleaved/min). […] The potency of the test compounds as DPP-IV inhibitors, expressed as IC50, is calculated from 8-point, dose-response curves using a 4-parameter logistic function.

[2] = molecular target: T2, DPP-IV activity in human plasma (Homo sapiens, UniProt P27487); test: human plasma DPP-IV assay; assay type: biochemical; details: substrate H-Glycine-Proline-AMC
T2 construct: from tissue; host or cells: human plasma
Procedure: (§1) Briefly, five μl of plasma are added to 96-well flat-bottom mictotiter plates (Falcon), followed by the addition of 5 μl of 80 mM MgCl2 in incubation buffer (25 mM HEPES, 140 mM NaCl, 1% RIA-grade BSA, pH 7.8). After a 5 min. incubation at room temperature, the reaction is initiated by the addition of 10 μl of incubation buffer containing 0.1 mM substrate (H-Glycine-Proline-AMC; AMC is 7-amino-4-methylcoumarin). The plates are covered with aluminum foil (or kept in the dark) and incubated at room temperature for 20 min. […] A fluorescence-concentration curve of free AMC is generated using 0-50 μM solutions of AMC in assay buffer. The curve generated is linear and is used for interpolation of substrate consumption (catalytic activity in nmoles substrate cleaved/min). As with the previous assay, the potency of the test compounds as DPP-IV inhibitors, expressed as IC50, is calculated from 8-point, dose-response curves using a 4 parameter logistic function.

[3] = molecular target: T3, DPP-IV activity in rat plasma (Rattus norvegicus, UniProt P14740); test: rat plasma DPP-IV assay; assay type: biochemical; details: substrate H-Glycine-Proline-AMC
T3 construct: from tissue; host or cells: rat plasma
Procedure: as §1

T1 sequence (P27487 whole entry): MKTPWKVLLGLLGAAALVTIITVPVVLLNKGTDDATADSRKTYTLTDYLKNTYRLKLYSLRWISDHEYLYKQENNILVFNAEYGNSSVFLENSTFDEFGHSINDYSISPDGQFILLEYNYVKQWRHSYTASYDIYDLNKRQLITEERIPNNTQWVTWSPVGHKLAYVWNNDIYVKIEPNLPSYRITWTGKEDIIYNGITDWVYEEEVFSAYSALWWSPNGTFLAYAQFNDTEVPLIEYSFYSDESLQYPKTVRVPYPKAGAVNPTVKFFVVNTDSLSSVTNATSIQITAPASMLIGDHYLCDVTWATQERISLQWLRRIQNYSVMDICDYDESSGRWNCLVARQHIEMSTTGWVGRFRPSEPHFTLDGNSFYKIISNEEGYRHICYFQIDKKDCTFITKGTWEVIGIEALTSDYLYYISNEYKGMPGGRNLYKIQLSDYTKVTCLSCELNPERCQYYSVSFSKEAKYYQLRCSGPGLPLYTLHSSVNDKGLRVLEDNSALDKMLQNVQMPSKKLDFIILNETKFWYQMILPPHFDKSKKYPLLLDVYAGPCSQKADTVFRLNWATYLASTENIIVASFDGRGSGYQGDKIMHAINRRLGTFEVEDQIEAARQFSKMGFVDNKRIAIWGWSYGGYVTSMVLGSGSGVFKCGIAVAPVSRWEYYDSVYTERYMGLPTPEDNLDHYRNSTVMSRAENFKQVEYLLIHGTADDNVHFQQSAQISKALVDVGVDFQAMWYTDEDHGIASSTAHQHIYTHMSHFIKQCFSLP
T3 sequence (P14740 37-767 limits assumed): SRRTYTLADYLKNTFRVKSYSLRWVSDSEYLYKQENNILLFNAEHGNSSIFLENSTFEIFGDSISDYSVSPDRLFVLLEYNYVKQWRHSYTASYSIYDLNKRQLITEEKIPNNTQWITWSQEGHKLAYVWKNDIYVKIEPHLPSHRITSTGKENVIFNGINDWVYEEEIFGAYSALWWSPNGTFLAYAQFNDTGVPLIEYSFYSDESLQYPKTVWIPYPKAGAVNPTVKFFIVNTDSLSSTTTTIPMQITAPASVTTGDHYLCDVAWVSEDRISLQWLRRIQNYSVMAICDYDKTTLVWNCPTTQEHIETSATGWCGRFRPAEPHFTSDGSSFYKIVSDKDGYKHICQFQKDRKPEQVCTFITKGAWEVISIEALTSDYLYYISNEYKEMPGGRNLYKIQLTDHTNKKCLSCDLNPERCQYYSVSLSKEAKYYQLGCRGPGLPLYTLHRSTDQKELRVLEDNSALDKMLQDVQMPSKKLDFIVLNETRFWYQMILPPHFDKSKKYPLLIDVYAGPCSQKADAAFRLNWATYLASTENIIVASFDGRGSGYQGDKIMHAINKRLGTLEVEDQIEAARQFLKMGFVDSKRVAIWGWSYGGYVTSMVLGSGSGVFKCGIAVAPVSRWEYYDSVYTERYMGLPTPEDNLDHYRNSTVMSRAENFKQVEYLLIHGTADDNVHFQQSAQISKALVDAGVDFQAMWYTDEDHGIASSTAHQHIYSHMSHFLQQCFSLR
T2 sequence (P27487 39-766 limits assumed): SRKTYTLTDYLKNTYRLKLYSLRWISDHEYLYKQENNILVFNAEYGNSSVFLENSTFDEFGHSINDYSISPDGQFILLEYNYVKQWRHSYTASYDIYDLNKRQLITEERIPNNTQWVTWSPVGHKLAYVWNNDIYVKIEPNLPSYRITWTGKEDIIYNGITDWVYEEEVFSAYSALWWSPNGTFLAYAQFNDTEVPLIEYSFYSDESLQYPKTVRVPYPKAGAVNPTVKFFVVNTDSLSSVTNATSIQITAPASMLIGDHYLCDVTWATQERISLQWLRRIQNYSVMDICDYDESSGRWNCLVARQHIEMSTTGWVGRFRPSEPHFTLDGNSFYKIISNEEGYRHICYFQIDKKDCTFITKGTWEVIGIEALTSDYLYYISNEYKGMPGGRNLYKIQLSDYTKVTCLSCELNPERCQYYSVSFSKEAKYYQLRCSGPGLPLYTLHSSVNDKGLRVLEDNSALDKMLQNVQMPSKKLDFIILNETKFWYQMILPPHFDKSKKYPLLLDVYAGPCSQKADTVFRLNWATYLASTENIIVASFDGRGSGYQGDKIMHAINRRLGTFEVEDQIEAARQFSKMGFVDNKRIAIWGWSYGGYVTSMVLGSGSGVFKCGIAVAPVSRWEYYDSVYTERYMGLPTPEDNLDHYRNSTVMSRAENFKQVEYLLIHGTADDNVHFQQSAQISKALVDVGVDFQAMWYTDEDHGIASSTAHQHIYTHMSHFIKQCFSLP

Compound | IC50 [1] [µM] | IC50 [2] [µM] | IC50 [3] [µM] | melting point [°C]
O=C(CNC1(CO)CCCC1)N1CCCC1 [Ex. 2C, 1-[(1-hydroxymethylcyclopent-1-yl)amino]acetylpyrrolidine] | 9.7 | 15.2 | 7.8 | 72 to 74
O=C(CNCCNc1ncccn1)N1CCCC1 [Ex. 2B] | 27.5 | 45.8 | 28.4 | 
N#Cc1ccc(NCCNCC(=O)N2CCCC2)nc1 [Ex. 2A, 1-[2-[(5-cyanopyridin-2-yl)amino]ethylamino]acetylpyrrolidine] | 2.6 | 9.2 | 4.4 | 122 to 123
O=C(CNCCNc1ccc(Cl)cn1)N1CCCC1 [Ex. 1, 1-[2-[(5-chloropyridin-2-yl)amino]ethylamino]acetylpyrrolidine] | 5.5 | 15.9 | 9.3 | 
O=C(CNCCNc1ccccn1)N1CCCC1 [Ex. 2D, 1-[2-[(pyridin-2-yl)amino]ethylamino]acetylpyrrolidine] | 6.4 | 9.4 | 22.9 | 98 to 100
